Reference: patent US8563505B2, “Hepatitis C virus inhibitors” (priority 2008, dated 2013)

How the values were obtained:
[1] = system: HCV replicon in HUH-7 cells; assay: HCV replicon assay (FRET, confirmed by luciferase reporter); type: cell-based, Hepatitis C virus (strain 1b); details: Hepatitis C virus, 96 h, HUH-7 replicon cells, 4 days
Source text: An HCV replicon whole cell system was established as described by Lohmann V, Korner F, Koch J, Herian U, Theilmann L, Bartenschlager R., Science 285(5424):110-3 (1999). This system enabled us to evaluate the effects of our HCV Protease compounds on HCV RNA replication. Briefly, using the HCV strain 1b sequence described in the Lohmann paper (Assession number: AJ238799), an HCV cDNA was synthesized by Operon Technologies, Inc. (Alameda, Calif.), and the full-length replicon was then assembled in plasmid pGem9zf(+) (Promega, Madison, Wis.) using standard molecular biology techniques. The replicon consists of (i) the HCV 5′ UTR fused to the first 12 amino acids of the capsid protein, (ii) the neomycin phosphotransferase gene (neo), (iii) the IRES from encephalomyocarditis virus (EMCV), and (iv) HCV NS3 to NS5B genes and the HCV 3′ UTR. Plasmid DNAs were linearized with Seal and RNA transcripts were synthesized in vitro using the T7 MegaScript transcription kit (Ambion, Austin, Tex.) according to manufacturer's directions. In vitro transcripts of the cDNA were transfected into the human hepatoma cell line, HUH-7. […] Resulting cell lines were characterized for positive and negative strand RNA production and protein production over time.
The HCV replicon FRET assay was developed to monitor the inhibitory effects of compounds described in the disclosure on HCV viral replication. HUH-7 cells, constitutively expressing the HCV replicon, were grown in Dulbecco's Modified Eagle Media (DMEM) (Gibco-BRL) containing 10% Fetal calf serum (FCS) (Sigma) and 1 mg/ml G418 (Gibco-BRL). Cells were seeded the night before (1.5×10^4 cells/well) in 96-well tissue-culture sterile plates. Compound and no compound controls were prepared in DMEM containing 4% FCS, 1:100 Penicillin/Streptomysin (Gibco-BRL), 1:100 L-glutamine and 5% DMSO in the dilution plate (0.5% DMSO final concentration in the assay). Compound/DMSO mixes were added to the cells and incubated for 4 days at 37° C. After 4 days, cells were first assessed for cytotoxicity using alamar Blue (Trek Diagnostic Systems) for a CC50 reading. The toxicity of compound (CC50) was determined by adding 1/10th volume of alamar Blue to the media incubating the cells. After 4 h, the fluorescence signal from each well was read, with an excitation wavelength at 530 nm and an emission wavelength of 580 nm, using the Cytofluor Series 4000 (Perspective Biosystems). Plates were then rinsed thoroughly with Phosphate-Buffered Saline (PBS) (3 times 150 μl).
As a secondary assay, EC50 determinations from the replicon FRET assay were confirmed in a replicon luciferase reporter assay. Utilization of a replicon luciferase reporter assay was first described by Krieger et al (Krieger N, Lohmann V, and Bartenschlager R, J. Viral. 75(10):4614-4624 (2001)). The replicon construct described for our FRET assay was modified by inserting cDNA encoding a humanized form of the Renilla luciferase gene and a linker sequence fused directly to the 3′-end of the luciferase gene. This insert was introduced into the replicon construct using an Asc1 restriction site located in core, directly upstream of the neomycin marker gene. The adaptive mutation at position 1179 (serine to isoleucine) was also introduced (Blight K J, Kolykhalov, A A, Rice, C M, Science 290(5498):1972-1974). A stable cell line constitutively expressing this HCV replicon construct was generated as described above. The luciferase reporter assay was set up as described for the HCV replicon FRET assay with the following modifications. Following 4 days in a 37° C./5% CO2 incubator, cells were analyzed for Renilla Luciferase activity using the Promega Dual-Glo Luciferase Assay System. Media (100 μl) was removed from each well containing cells. To the remaining 50 μl of media, 50 μl of Dual-Glo Luciferase Reagent was added, and plates rocked for 10 min to 2 h at room temperature. […]

[2] = molecular target: T1, HCV NS3/4A protease complex (Hepatitis C virus genotype 1a, UniProt P27958, C1454S/C1711G); assay: FRET peptide assay to monitor HCV NS3/4A proteolytic activity; type: biochemical; details: NS3/4A strain not stated
T1 construct: DNA encoding the recombinant HCV NS3/4A protease complex (amino acids 1027 to 1711) for these strains; inferred from pET21b vector and Ni-NTA purification) (C); made in house; host or cells: Escherichia coli BL21 (DE3), pET21b
Source text: HCV NS3 protease complexes, derived from the BMS strain, H77 strain or J4L6S strain, were generated, as described below. These purified recombinant proteins were generated for use in a homogeneous assay (see below) to provide an indication of how effective compounds of the present disclosure would be in inhibiting HCV NS3 proteolytic activity.
The H77 and J4L6S strains were used for production of recombinant NS3/4A protease complexes. DNA encoding the recombinant HCV NS3/4A protease complex (amino acids 1027 to 1711) for these strains was manipulated as described by P. Gallinari et al. (see Gallinari P, Paolini C, Brennan D, Nardi C, Steinkuhler C, De Francesco R. Biochemistry. 38(17):5620-32, (1999)). Briefly, a three-lysine solubilizing tail was added at the 3′-end of the NS4A coding region. The cysteine in the P1 position of the NS4A-NS4B cleavage site (amino acid 1711) was changed to a glycine to avoid the proteolytic cleavage of the lysine tag. Furthermore, a cysteine to serine mutation was introduced by PCR at amino acid position 1454 to prevent the autolytic cleavage in the NS3 helicase domain. The variant DNA fragment was cloned in the pET21b bacterial expression vector (Novagen) and the NS3/4A complex was expressed in Escherichia coli strain BL21 (DE3) (Invitrogen) following the protocol described by P. Gallinari et al. (see Gallinari P, Brennan D, Nardi C, Brunetti M, Tomei L, Steinkuhler C, De Francesco R., J Virol. 72(8):6758-69 (1998)) with modifications. Briefly, the NS3/4A protease complex expression was induced with 0.5 millimolar (mM) Isopropyl β-D-1-thiogalactopyranoside (IPTG) for 22 hours (h) at 20° C. A typical fermentation (1 Liter (L)) yielded approximately 10 grams (g) of wet cell paste. The cells were resuspended in lysis buffer (10 mL/g) consisting of 25 mM N-(2-Hydroxyethyl)Piperazine-N′-(2-Ethane Sulfonic acid) (HEPES), pH 7.5, 20% glycerol, 500 mM Sodium Chloride (NaCl), 0.5% Triton X-100, 1 microgram/milliliter ([…]) lysozyme, 5 mM Magnesium Chloride (MgCl2), 1 μg/ml DnaseI, 5 mM […] (βME), Protease inhibitor-Ethylenediamine Tetraacetic acid (EDTA) free (Roche), homogenized and incubated for 20 minutes (min) at 4° C. The homogenate was sonicated and clarified by ultra-centrifugation at 235000 g for 1 hour (h) at 4° C. Imidazole was added to the supernatant to a final concentration of 15 mM and the pH adjusted to 8.0. The crude protein extract was loaded on a Nickel-Nitrilotriacetic acid (Ni-NTA) column pre-equilibrated with buffer B (25 mM HEPES, pH 8.0, 20% glycerol, 500 mM NaCl, 0.5% Triton X-100, 15 mM imidazole, 5 mM βME). The sample was loaded at a flow rate of 1 mL/min. The column was washed with 15 column volumes of buffer C (same as buffer B except with 0.2% Triton X-100). The protein was eluted with 5 column volumes of buffer D (same as buffer C except with 200 mM Imidazole).
NS3/4A protease complex-containing fractions were pooled and loaded on a desalting column Superdex-S200 pre-equilibrated with buffer D (25 mM HEPES, pH 7.5, 20% glycerol, 300 mM NaCl, 0.2% Triton X-100, 10 mM (βME). Sample was loaded at a flow rate of 1 mL/min. NS3/4A protease complex-containing fractions were pooled and concentrated to approximately 0.5 mg/ml. The purity of the NS3/4A protease complexes, derived from the BMS, H77 and J4L6S strains, were judged to be greater than 90% by SDS-PAGE and mass spectrometry analyses. The enzyme was stored at −80° C., thawed on ice and diluted prior to use in assay buffer.
The purpose of this in vitro assay was to measure the inhibition of HCV NS3 protease complexes, derived from the BMS strain, H77 strain or J4L6S strain, as described above, by compounds of the present disclosure. This assay provides an indication of how effective compounds of the present disclosure would be in inhibiting HCV NS3 proteolytic activity.
In order to monitor HCV NS3/4A protease activity, an NS3/4A peptide substrate was used. […]

T1 sequence (P27958 1027-1711 C1454S/C1711G, one chain of several): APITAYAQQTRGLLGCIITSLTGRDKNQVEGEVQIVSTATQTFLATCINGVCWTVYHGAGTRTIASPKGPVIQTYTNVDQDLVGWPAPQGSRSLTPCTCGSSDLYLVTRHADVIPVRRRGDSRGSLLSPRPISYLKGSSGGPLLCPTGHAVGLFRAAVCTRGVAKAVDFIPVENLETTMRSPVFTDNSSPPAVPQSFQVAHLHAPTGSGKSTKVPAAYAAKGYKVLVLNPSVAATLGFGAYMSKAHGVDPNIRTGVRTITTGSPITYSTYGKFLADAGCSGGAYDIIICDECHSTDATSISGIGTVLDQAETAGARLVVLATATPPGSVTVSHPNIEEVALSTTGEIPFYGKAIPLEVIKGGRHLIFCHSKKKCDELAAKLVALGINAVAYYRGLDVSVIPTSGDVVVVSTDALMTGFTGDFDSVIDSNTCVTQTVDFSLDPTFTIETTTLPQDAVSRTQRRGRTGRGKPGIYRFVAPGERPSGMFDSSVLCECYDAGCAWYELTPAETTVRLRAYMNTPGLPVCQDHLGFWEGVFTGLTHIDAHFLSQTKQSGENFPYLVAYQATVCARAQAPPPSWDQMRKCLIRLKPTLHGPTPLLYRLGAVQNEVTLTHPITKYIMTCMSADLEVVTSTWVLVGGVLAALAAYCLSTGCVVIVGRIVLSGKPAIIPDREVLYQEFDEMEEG

SMILES | EC50 ([1]; numeric values) [nM] | IC50 ([2]; numeric values) [nM] | IC50 ([2]; class symbols) [nM] | EC50 ([1]; class symbols) [nM]
CO[C@@]12C[C@@H](C(=O)N[C@]3(C(=O)NS(=O)(=O)C4CC4)C[C@H]3C3CC3)N(C1)C(=O)[C@H](C(C)(C)C)NC(=O)OCCCCCCc1ccccc1-c1ccc2cc1 [Example 2] | 16 | 1.5 |  | 
CO[C@@]12C[C@@H](C(=O)N[C@]3(C(=O)NS(=O)(=O)C4CC4)C[C@H]3C3CC3)N(C1)C(=O)[C@H](C(C)(C)C)NC(=O)OCCCCCCCc1ccccc1-c1ccc2cc1 [Example 18] |  |  | 1 to 3 | 
C=C[C@@H]1C[C@]1(NC(=O)[C@@H]1C[C@]2(OC)CN1C(=O)[C@H](C(C)(C)C)NC(=O)OCCCCCc1ccccc1-c1ccc2cc1)C(=O)NS(=O)(=O)C1CC1 [Example 15] |  |  | 4 to 7 | 
CO[C@@]12C[C@@H](C(=O)N[C@]3(C(=O)NS(=O)(=O)C4CC4)C[C@H]3C3CC3)N(C1)C(=O)[C@H](C(C)(C)C)NC(=O)OCC(C)(C)CCCCc1cc(N(C)C)ccc1-c1ccc2cc1 [Example 22] |  |  | 1 to 3 | 
C=C[C@@H]1C[C@]1(NC(=O)[C@@H]1C[C@]2(OC)CN1C(=O)[C@H](C(C)(C)C)NC(=O)OCCC(C)(C)CCCc1cc(OC)ccc1-c1ccc2cc1)C(=O)NS(=O)(=O)C1CC1 [Example 10] |  |  | 1 to 3 | 5.5 to 10
COc1ccc2c(c1)CCCCC(C)(C)COC(=O)N[C@@H](C(C)(C)C)C(=O)N1C[C@@](OC)(C[C@H]1C(=O)N[C@]1(C(=O)NS(=O)(=O)C3CC3)C[C@H]1C1CC1)c1ccc-2cc1 [Example 13] |  |  | 4 to 7 | 
C=C[C@@H]1C[C@]1(NC(=O)[C@@H]1C[C@]2(OC)CN1C(=O)[C@H](C(C)(C)C)NC(=O)OCC(C)(C)CCCCc1cc(OC)ccc1-c1ccc2cc1)C(=O)NS(=O)(=O)C1CC1 [Example 12] |  |  | 1 to 3 | 5.5 to 10
CO[C@@]12C[C@@H](C(=O)N[C@]3(C(=O)NS(=O)(=O)C4CC4)C[C@H]3C3CC3)N(C1)C(=O)[C@H](C(C)(C)C)NC(=O)OCC(C)(C)CCCCc1ccccc1-c1ccc2cc1 [Example 5] |  |  | 4 to 7 | 11 to 20
CO[C@@]12C[C@@H](C(=O)N[C@]3(C(=O)NS(=O)(=O)C4CC4)C[C@H]3C3CC3)N(C1)C(=O)[C@H](C(C)(C)C)NC(=O)OCCCCCc1ccccc1-c1ccc2cc1 [Example 14] |  |  | 8 to 11 | 
C=C[C@@H]1C[C@]1(NC(=O)[C@@H]1C[C@]2(OC)CN1C(=O)[C@H](C(C)(C)C)NC(=O)OCCCCCc1cc2ccc1-c1ccccc1)C(=O)NS(=O)(=O)C1CC1 [Example 9] | 26 | 4 |  | 
CO[C@@]12C[C@@H](C(=O)N[C@]3(C(=O)NS(=O)(=O)C4CC4)C[C@H]3C3CC3)N(C1)C(=O)[C@H](C(C)(C)C)NC(=O)OCC(C)(C)CCCc1ccccc1-c1ccc2cc1 [Example 16] |  |  | 4 to 7 | 
C=C[C@@H]1C[C@]1(NC(=O)[C@@H]1C[C@]2(OC)CN1C(=O)[C@H](C(C)(C)C)NC(=O)OCCC(C)(C)CCCc1ccccc1-c1ccc2cc1)C(=O)NS(=O)(=O)C1CC1 [Example 4] |  |  | 1 to 3 | 11 to 20
COc1ccc2c(c1)CCCC(C)(C)CCOC(=O)N[C@@H](C(C)(C)C)C(=O)N1C[C@@](OC)(C[C@H]1C(=O)N[C@]1(C(=O)NS(=O)(=O)C3CC3)C[C@H]1C1CC1)c1ccc-2cc1 [Example 11] |  |  | 1 to 3 | 5.5 to 10
CO[C@@]12C[C@@H](C(=O)N[C@]3(C(=O)NS(=O)(=O)C4CC4)C[C@H]3C(F)F)N(C1)C(=O)[C@H](C(C)(C)C)NC(=O)OCC(C)(C)CCCCc1ccccc1-c1ccc2cc1 [Example 7] |  |  | 1 to 3 | 5.5 to 10
C=C[C@@H]1C[C@]1(NC(=O)[C@@H]1C[C@]2(OC)CN1C(=O)[C@H](C(C)(C)C)NC(=O)OCC(C)(C)CCCCc1ccccc1-c1ccc2cc1)C(=O)NS(=O)(=O)C1CC1 [Example 6] |  |  | 1 to 3 | 5.5 to 10
C=C[C@@H]1C[C@]1(NC(=O)[C@@H]1C[C@]2(OC)CN1C(=O)[C@H](C(C)(C)C)NC(=O)OCCCCCCCc1ccccc1-c1ccc2cc1)C(=O)NS(=O)(=O)C1CC1 [Example 19] |  |  | 1 to 3 | 
CO[C@@]12C[C@@H](C(=O)N[C@]3(C(=O)NS(=O)(=O)C4CC4)C[C@H]3C3CC3)N(C1)C(=O)[C@H](C(C)(C)C)NC(=O)OCCCCCCc1ccc(Cl)cc1-c1ccc2cc1 [Example 20] |  |  | 1 to 3 | 
CO[C@@]12C[C@@H](C(=O)N[C@]3(C(=O)NS(=O)(=O)C4CC4)C[C@H]3C3CC3)N(C1)C(=O)[C@H](C(C)(C)C)NC(=O)OCCCCc1cccc(c1)-c1cccc2c1 [Example 21] |  |  | 1 to 3 | 
